# Experimental data taken from PubChem BioAssay (NCI).
#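 96-well plates; 48 h exposure; 5 concentrations. Endpoints by linear interpolation between flanking doses. Not reached: highest tested concentration assigned. GI50: concentration for 50% inhibition of growth. TGI: total growth inhibition.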
# What was measured:
# Assay in all cases: DTP human tumour cell line panel, 48 h
# [1] = tested on: NCI-H226 lung
# [2] = tested on: NCI/ADR-RES ovarian
# [3] = tested on: HS 578T breast
# [4] = tested on: HT29 colon
# [5] = tested on: COLO 205 colon
# [6] = tested on: K-562 leukemia
# [7] = tested on: SF-539 CNS
# [8] = tested on: ACHN renal
# [9] = tested on: PC-3 prostate
# [10] = tested on: SNB-19 CNS
# [11] = tested on: SK-MEL-28 melanoma
# [12] = tested on: LOX IMVI melanoma
# [13] = tested on: CCRF-CEM leukemia
# [14] = tested on: SNB-75 CNS
# [15] = tested on: EKVX NSCLC
# [16] = tested on: NCI-H23 lung
# [17] = tested on: HCC-2998 colon
# [18] = tested on: M14 melanoma
# [19] = tested on: UACC-62 melanoma
# [20] = tested on: HOP-62 NSCLC
# [21] = tested on: SF-295 CNS
# [22] = tested on: NCI-H460 lung
# [23] = tested on: T-47D breast
# [24] = tested on: OVCAR-4 ovarian
# [25] = tested on: MOLT-4 leukemia
# [26] = tested on: BT-549 breast
# [27] = tested on: SN12C renal
# [28] = tested on: DU-145 prostate
# [29] = tested on: SK-MEL-2 melanoma
# [30] = tested on: OVCAR-5 ovarian
# [31] = tested on: OVCAR-8 ovarian
# [32] = tested on: SF-268 CNS
# [33] = tested on: KM12 colon
# [34] = tested on: U251 CNS
# [35] = tested on: SK-OV-3 ovarian
# [36] = tested on: NCI-H522 lung
# [37] = tested on: HOP-92 NSCLC
# [38] = tested on: MDA-MB-231 breast
# [39] = tested on: SW-620 colon
# [40] = tested on: IGROV1 ovarian
# [41] = tested on: 786-0 renal
# [42] = tested on: TK-10 renal
# [43] = tested on: RXF 393 renal
# [44] = tested on: HCT-15 colon
# [45] = tested on: MALME-3M melanoma
# [46] = tested on: SK-MEL-5 melanoma
# [47] = tested on: OVCAR-3 ovarian
# [48] = tested on: UACC-257 melanoma
# [49] = tested on: CAKI-1 renal
# [50] = tested on: RPMI-8226 leukemia
# [51] = tested on: UO-31 renal
# [52] = tested on: A549 NSCLC
# [53] = tested on: HCT-116 colon
# [54] = tested on: MDA-MB-435
# [55] = tested on: MCF7 breast
# [56] = tested on: A498 renal
# [57] = tested on: SR leukemia
# [58] = tested on: HL-60(TB) leukemia
smiles,measurement,setting,value
COC1=C(Br)C(=O)C2=C(C1=O)C1C3=C(C(=O)C=CC3=O)C2c2ccccc21 (stereo unspecified),GI50,[1],21 µM
same,TGI,[1],46.4 µM
same,GI50,[2],18.8 µM
same,TGI,[2],61.5 µM
same,GI50,[3],4.82 µM
same,TGI,[3],> 100 µM
same,GI50,[4],31.9 µM
same,TGI,[4],> 100 µM
same,GI50,[5],12.3 µM
same,TGI,[5],44.9 µM
same,GI50,[6],4.66 µM
same,TGI,[6],> 100 µM
same,GI50,[7],2.92 µM
same,TGI,[7],8.79 µM
same,GI50,[8],14.8 µM
same,TGI,[8],34.5 µM
same,GI50,[9],4.35 µM
same,TGI,[9],25.6 µM
same,GI50,[10],16.6 µM
same,TGI,[10],43.3 µM
same,GI50,[11],30.7 µM
same,TGI,[11],> 100 µM
same,GI50,[12],4.91 µM
same,TGI,[12],26 µM
same,GI50,[13],3.16 µM
same,TGI,[13],> 100 µM
same,GI50,[14],19.4 µM
same,TGI,[14],64.4 µM
same,GI50,[15],5.81 µM
same,TGI,[15],22.2 µM
same,GI50,[16],17.3 µM
same,TGI,[16],48.5 µM
same,GI50,[17],0.565 µM
same,TGI,[17],19.5 µM
same,GI50,[18],33.4 µM
same,TGI,[18],80.4 µM
same,GI50,[19],11.2 µM
same,TGI,[19],27.8 µM
same,GI50,[20],25.9 µM
same,TGI,[20],47.6 µM
same,GI50,[21],24.1 µM
same,TGI,[21],48.9 µM
same,GI50,[22],33.3 µM
same,TGI,[22],> 100 µM
same,GI50,[23],3.16 µM
same,TGI,[23],21.7 µM
same,GI50,[24],13.7 µM
same,TGI,[24],63.7 µM
same,GI50,[25],4.99 µM
same,TGI,[25],> 100 µM
same,GI50,[26],16.8 µM
same,TGI,[26],38.3 µM
same,GI50,[27],11 µM
same,TGI,[27],32.2 µM
same,GI50,[28],21.4 µM
same,TGI,[28],53.8 µM
same,GI50,[29],20.6 µM
same,TGI,[29],61.2 µM
same,GI50,[30],22.3 µM
same,TGI,[30],98.6 µM
same,GI50,[31],24.3 µM
same,TGI,[31],> 100 µM
same,GI50,[32],18.2 µM
same,TGI,[32],59.6 µM
same,GI50,[33],12.4 µM
same,TGI,[33],32.1 µM
same,GI50,[34],4.31 µM
same,TGI,[34],22.2 µM
same,GI50,[35],45.6 µM
same,TGI,[35],> 100 µM
same,GI50,[36],3.26 µM
same,TGI,[36],14.4 µM
same,GI50,[37],2.51 µM
same,TGI,[37],11.6 µM
same,GI50,[38],8.15 µM
same,TGI,[38],66.1 µM
same,GI50,[39],4.56 µM
same,TGI,[39],> 100 µM
same,GI50,[40],9.4 µM
same,TGI,[40],45.1 µM
same,GI50,[41],14.9 µM
same,TGI,[41],36.1 µM
same,GI50,[42],23.8 µM
same,TGI,[42],43.5 µM
same,GI50,[43],18.3 µM
same,TGI,[43],37.5 µM
same,GI50,[44],20 µM
same,TGI,[44],42.6 µM
same,GI50,[45],27.8 µM
same,TGI,[45],56.8 µM
same,GI50,[46],16 µM
same,TGI,[46],48.9 µM
same,GI50,[47],5.43 µM
same,TGI,[47],28.3 µM
same,GI50,[48],38.2 µM
same,TGI,[48],> 100 µM
same,GI50,[49],15.6 µM
same,TGI,[49],38.4 µM
same,GI50,[50],4.04 µM
same,TGI,[50],> 100 µM
same,GI50,[51],12.2 µM
same,TGI,[51],41.2 µM
same,GI50,[52],42.1 µM
same,TGI,[52],> 100 µM
same,GI50,[53],5.91 µM
same,TGI,[53],> 100 µM
same,GI50,[54],18.2 µM
same,TGI,[54],36.3 µM
same,GI50,[55],22.7 µM
same,TGI,[55],> 100 µM
N#Cc1ccc2c(c1)C(=O)c1c-2n(CCCN)c(=O)c2cc([N+](=O)[O-])ccc12,GI50,[2],0.359 µM
same,TGI,[2],3.19 µM
same,GI50,[3],1.41 µM
same,TGI,[3],3.41 µM
same,GI50,[4],0.0718 µM
same,TGI,[4],0.562 µM
same,GI50,[5],0.518 µM
same,TGI,[5],2.09 µM
same,GI50,[6],0.185 µM
same,TGI,[6],3.97 µM
same,GI50,[7],0.219 µM
same,TGI,[7],1.31 µM
same,GI50,[8],0.0699 µM
same,TGI,[8],1.18 µM
same,GI50,[9],0.317 µM
same,TGI,[9],1.95 µM
same,GI50,[10],0.146 µM
same,TGI,[10],1.54 µM
same,GI50,[11],0.975 µM
same,TGI,[11],2.59 µM
same,GI50,[56],1.09 µM
same,TGI,[56],2.44 µM
same,GI50,[12],0.0696 µM
same,TGI,[12],1.08 µM
same,GI50,[13],0.038 µM
same,TGI,[13],0.442 µM
same,GI50,[14],0.288 µM
same,TGI,[14],1.24 µM
same,GI50,[15],0.537 µM
same,TGI,[15],1.93 µM
same,GI50,[57],0.0184 µM
same,TGI,[57],1.26 µM
same,GI50,[16],0.353 µM
same,TGI,[16],2.39 µM
same,GI50,[17],0.101 µM
same,TGI,[17],0.447 µM
same,GI50,[18],0.467 µM
same,TGI,[18],2.08 µM
same,GI50,[19],0.109 µM
same,TGI,[19],1.39 µM
same,GI50,[20],0.259 µM
same,TGI,[20],1.79 µM
same,GI50,[21],0.0382 µM
same,TGI,[21],1.49 µM
same,GI50,[22],0.0462 µM
same,TGI,[22],1.14 µM
same,GI50,[24],0.0912 µM
same,TGI,[24],0.257 µM
same,GI50,[25],0.0492 µM
same,GI50,[26],0.847 µM
same,TGI,[26],2.29 µM
same,GI50,[27],0.261 µM
same,TGI,[27],1.82 µM
same,GI50,[28],0.11 µM
same,TGI,[28],1.41 µM
same,GI50,[29],0.0534 µM
same,TGI,[29],1.29 µM
same,GI50,[30],0.705 µM
same,TGI,[30],1.86 µM
same,GI50,[31],0.29 µM
same,TGI,[31],3.62 µM
same,GI50,[32],0.0846 µM
same,TGI,[32],1.51 µM
same,GI50,[33],1.2 µM
same,TGI,[33],3.89 µM
same,GI50,[34],0.0718 µM
same,TGI,[34],0.497 µM
same,GI50,[35],0.314 µM
same,TGI,[35],1.92 µM
same,GI50,[37],1.08 µM
same,TGI,[37],2.46 µM
same,GI50,[38],1.5 µM
same,TGI,[38],3.04 µM
same,GI50,[39],0.0291 µM
same,TGI,[39],0.568 µM
same,GI50,[40],0.0712 µM
same,TGI,[40],1.24 µM
same,GI50,[41],0.61 µM
same,TGI,[41],2.16 µM
same,GI50,[42],1.74 µM
same,TGI,[42],3.72 µM
same,GI50,[43],0.906 µM
same,TGI,[43],2.22 µM
same,GI50,[44],0.411 µM
same,TGI,[44],1.83 µM
same,GI50,[46],0.248 µM
same,TGI,[46],1.35 µM
same,GI50,[48],0.637 µM
same,TGI,[48],2.43 µM
same,GI50,[49],0.0285 µM
same,TGI,[49],1.54 µM
same,GI50,[50],0.099 µM
same,TGI,[50],0.815 µM
same,GI50,[51],0.0605 µM
same,TGI,[51],1.44 µM
same,GI50,[52],0.223 µM
same,TGI,[52],2.18 µM
same,GI50,[53],0.199 µM
same,TGI,[53],1.59 µM
same,GI50,[58],1.37 µM
same,TGI,[58],3.56 µM
